Columns and labels:
[1] = Volume of distribution at steady state in CD1 mouse; format: ADME, organism-based; conditions: in vivo, read-out: Vdss
[2] = Oral bioavailability in Sprague-Dawley rat at 5 mg/kg; format: ADME, organism-based; conditions: in vivo
[3] = target: Dual specificity mitogen-activated protein kinase kinase 6 (Homo sapiens) (UniProt P52564); assay: Inhibition of MEK6 assessed as enzyme activity at 1 uM relative to untreated control; design: scale not given: the % may be the effect or the level left
[4] = target: Hepatocyte growth factor receptor (Homo sapiens) (UniProt P08581); assay: Inhibition of MET assessed as enzyme activity at 1 uM relative to untreated control; design: scale not given: the % may be the effect or the level left
[5] = target: MAP kinase-interacting serine/threonine-protein kinase 2 (Homo sapiens) (UniProt Q9HBH9); assay: Inhibition of MKNK2 assessed as enzyme activity at 1 uM relative to untreated control; design: scale not given: the % may be the effect or the level left
[6] = target: Serine/threonine-protein kinase 24 (Homo sapiens) (UniProt Q9Y6E0); assay: Inhibition of MST3 assessed as enzyme activity at 1 uM relative to untreated control; design: scale not given: the % may be the effect or the level left
[7] = target: Serine/threonine-protein kinase PAK 2 (Homo sapiens) (UniProt Q13177); assay: Inhibition of PAK2 assessed as enzyme activity at 1 uM relative to untreated control; design: scale not given: the % may be the effect or the level left
[8] = target: Tyrosine-protein kinase JAK2 (Homo sapiens) (UniProt O60674); assay: Inhibition of JAK2 kinase domain 2 assessed as enzyme activity at 1 uM relative to untreated control; design: scale not given: the % may be the effect or the level left
[9] = target: Cyclin-dependent kinase 7 (Homo sapiens) (UniProt P50613); assay: Inhibition of CDK7 assessed as enzyme activity at 1 uM relative to untreated control; design: scale not given: the % may be the effect or the level left
[10] = target: Dual specificity protein kinase CLK2 (Homo sapiens) (UniProt P49760); assay: Inhibition of CLK2 assessed as enzyme activity at 1 uM relative to untreated control; design: scale not given: the % may be the effect or the level left
[11] = target: Tyrosine-protein kinase CSK (Homo sapiens) (UniProt P41240); assay: Inhibition of CSK assessed as enzyme activity at 1 uM relative to untreated control; design: scale not given: the % may be the effect or the level left
[12] = target: Serine/threonine-protein kinase D3 (Homo sapiens) (UniProt O94806); assay: Inhibition of PRKD3 assessed as enzyme activity at 1 uM relative to untreated control; design: scale not given: the % may be the effect or the level left
[13] = target: cGMP-dependent protein kinase 1 (Homo sapiens) (UniProt Q13976); assay: Inhibition of PRKG1 assessed as enzyme activity at 1 uM relative to untreated control; design: scale not given: the % may be the effect or the level left
[14] = target: cGMP-dependent protein kinase 2 (Homo sapiens) (UniProt Q13237); assay: Inhibition of PRKG2 assessed as enzyme activity at 1 uM relative to untreated control; design: scale not given: the % may be the effect or the level left
[15] = test system: Proto-oncogene tyrosine-protein kinase receptor Ret (Homo sapiens), P07949 [M918T]; assay: Inhibition of RET M918T mutant assessed as enzyme activity at 1 uM relative to untreated control; design: scale not given: the % may be the effect or the level left
[16] = target: Proto-oncogene tyrosine-protein kinase ROS (Homo sapiens) (UniProt P08922); assay: Inhibition of ROS1 assessed as enzyme activity at 1 uM relative to untreated control; design: scale not given: the % may be the effect or the level left
[17] = target: Ribosomal protein S6 kinase alpha-1 (Homo sapiens) (UniProt Q15418); assay: Inhibition of RPS6KA1 kinase domain 1 assessed as enzyme activity at 1 uM relative to untreated control; design: scale not given: the % may be the effect or the level left
[18] = target: Receptor tyrosine-protein kinase erbB-4 (Homo sapiens) (UniProt Q15303); assay: Inhibition of ERBB4 assessed as enzyme activity at 1 uM relative to untreated control; design: scale not given: the % may be the effect or the level left
[19] = target: Mitogen-activated protein kinase 4 (Homo sapiens) (UniProt P31152); assay: Inhibition of ERK4 assessed as enzyme activity at 1 uM relative to untreated control; design: scale not given: the % may be the effect or the level left
[20] = target: Mitogen-activated protein kinase 7 (Homo sapiens) (UniProt Q13164); assay: Inhibition of ERK5 assessed as enzyme activity at 1 uM relative to untreated control; design: scale not given: the % may be the effect or the level left
[21] = target: Tyrosine-protein kinase Fes/Fps (Homo sapiens) (UniProt P07332); assay: Inhibition of FES assessed as enzyme activity at 1 uM relative to untreated control; design: scale not given: the % may be the effect or the level left
[22] = Inhibition of FGFR3 G697C mutant assessed as enzyme activity at 1 uM relative to untreated control; design: scale not given: the % may be the effect or the level left
[23] = test system: Receptor-type tyrosine-protein kinase FLT3 (Homo sapiens), P36888 [D835H]; assay: Inhibition of FLT3 D835H mutant assessed as enzyme activity at 1 uM relative to untreated control; design: scale not given: the % may be the effect or the level left
[24] = target: Tyrosine-protein kinase JAK1 (Homo sapiens) (UniProt P23458); assay: Inhibition of JAK1 kinase domain 1 assessed as enzyme activity at 1 uM relative to untreated control; design: scale not given: the % may be the effect or the level left
[25] = target: Myotonin-protein kinase (Homo sapiens) (UniProt Q09013); assay: Inhibition of DMPK assessed as enzyme activity at 1 uM relative to untreated control; design: scale not given: the % may be the effect or the level left
[26] = target: Epidermal growth factor receptor (Homo sapiens) (UniProt P04626+P00533+Q15303+P21860); assay: Inhibition of EGFR S752-I759del mutant assessed as enzyme activity at 1 uM relative to untreated control; format: protein assay; design: scale not given: the % may be the effect or the level left
A-375 = assay: Antitumor activity against human A375 SQ2 cells xenografted in CD1 mouse assessed as regression of tumor growth at 5 mg/kg, po qd for 14 days; format: functional
[27] = test system: Tyrosine-protein kinase ABL1 (Homo sapiens), P00519 [E255K]; assay: Inhibition of ABL1 E255K mutant assessed as enzyme activity at 1 uM relative to untreated control; design: scale not given: the % may be the effect or the level left
[28] = test system: Tyrosine-protein kinase ABL1 (Homo sapiens), P00519 [Q252H]; assay: Inhibition of ABL1 Q252H mutant assessed as enzyme activity at 1 uM relative to untreated control; design: scale not given: the % may be the effect or the level left
[29] = target: ALK tyrosine kinase receptor (Homo sapiens) (UniProt Q9UM73); assay: Inhibition of ALK assessed as enzyme activity at 1 uM relative to untreated control; design: scale not given: the % may be the effect or the level left
[30] = target: Platelet-derived growth factor receptor beta (Homo sapiens) (UniProt P09619); assay: Inhibition of PDGFRB assessed as enzyme activity at 1 uM relative to untreated control; design: scale not given: the % may be the effect or the level left
[31] = target: Serine/threonine-protein kinase pim-2 (Homo sapiens) (UniProt Q9P1W9); assay: Inhibition of PIM2 assessed as enzyme activity at 1 uM relative to untreated control; design: scale not given: the % may be the effect or the level left
[32] = target: cAMP-dependent protein kinase catalytic subunit beta (Homo sapiens) (UniProt P22694); assay: Inhibition of PKACbeta assessed as enzyme activity at 1 uM relative to untreated control; design: scale not given: the % may be the effect or the level left
[33] = target: Protein kinase C eta type (Homo sapiens) (UniProt P24723); assay: Inhibition of PRKCH assessed as enzyme activity at 1 uM relative to untreated control; design: scale not given: the % may be the effect or the level left
[34] = target: Ankyrin repeat and protein kinase domain-containing protein 1 (Homo sapiens) (UniProt Q8NFD2); assay: Inhibition of ANKK1 assessed as enzyme activity at 1 uM relative to untreated control; design: scale not given: the % may be the effect or the level left
[35] = target: TRAF2 and NCK-interacting protein kinase (Homo sapiens) (UniProt Q9UKE5); assay: Inhibition of TNIK assessed as enzyme activity at 1 uM relative to untreated control; design: scale not given: the % may be the effect or the level left
[36] = target: Non-receptor tyrosine-protein kinase TNK1 (Homo sapiens) (UniProt Q13470); assay: Inhibition of TNK1 assessed as enzyme activity at 1 uM relative to untreated control; design: scale not given: the % may be the effect or the level left
[37] = target: Wee1-like protein kinase 2 (Homo sapiens) (UniProt P0C1S8); assay: Inhibition of WEE2 assessed as enzyme activity at 1 uM relative to untreated control; design: scale not given: the % may be the effect or the level left

Sequence of Protein kinase C eta type (Homo sapiens) (P24723 whole entry, the tested form may be a part): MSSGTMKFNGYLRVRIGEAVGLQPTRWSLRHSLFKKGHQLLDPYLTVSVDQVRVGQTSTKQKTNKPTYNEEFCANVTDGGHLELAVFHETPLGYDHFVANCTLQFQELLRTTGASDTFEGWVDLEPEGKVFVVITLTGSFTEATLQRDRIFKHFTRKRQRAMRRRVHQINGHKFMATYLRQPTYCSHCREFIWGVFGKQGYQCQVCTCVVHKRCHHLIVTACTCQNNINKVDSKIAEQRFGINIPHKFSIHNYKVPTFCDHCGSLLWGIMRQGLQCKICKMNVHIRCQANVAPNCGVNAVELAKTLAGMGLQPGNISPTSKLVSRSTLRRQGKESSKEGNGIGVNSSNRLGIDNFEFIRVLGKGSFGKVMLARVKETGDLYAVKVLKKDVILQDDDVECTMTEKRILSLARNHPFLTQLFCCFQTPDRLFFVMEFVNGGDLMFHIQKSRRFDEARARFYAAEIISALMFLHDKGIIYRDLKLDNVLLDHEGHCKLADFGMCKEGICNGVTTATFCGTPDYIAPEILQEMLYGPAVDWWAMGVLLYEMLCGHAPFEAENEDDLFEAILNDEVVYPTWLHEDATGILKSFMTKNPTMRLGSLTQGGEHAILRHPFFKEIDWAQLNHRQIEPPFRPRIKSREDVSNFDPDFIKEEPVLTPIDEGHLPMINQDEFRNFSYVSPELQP
Sequence of Tyrosine-protein kinase JAK2 (Homo sapiens) (O60674 whole entry, the tested form may be a part): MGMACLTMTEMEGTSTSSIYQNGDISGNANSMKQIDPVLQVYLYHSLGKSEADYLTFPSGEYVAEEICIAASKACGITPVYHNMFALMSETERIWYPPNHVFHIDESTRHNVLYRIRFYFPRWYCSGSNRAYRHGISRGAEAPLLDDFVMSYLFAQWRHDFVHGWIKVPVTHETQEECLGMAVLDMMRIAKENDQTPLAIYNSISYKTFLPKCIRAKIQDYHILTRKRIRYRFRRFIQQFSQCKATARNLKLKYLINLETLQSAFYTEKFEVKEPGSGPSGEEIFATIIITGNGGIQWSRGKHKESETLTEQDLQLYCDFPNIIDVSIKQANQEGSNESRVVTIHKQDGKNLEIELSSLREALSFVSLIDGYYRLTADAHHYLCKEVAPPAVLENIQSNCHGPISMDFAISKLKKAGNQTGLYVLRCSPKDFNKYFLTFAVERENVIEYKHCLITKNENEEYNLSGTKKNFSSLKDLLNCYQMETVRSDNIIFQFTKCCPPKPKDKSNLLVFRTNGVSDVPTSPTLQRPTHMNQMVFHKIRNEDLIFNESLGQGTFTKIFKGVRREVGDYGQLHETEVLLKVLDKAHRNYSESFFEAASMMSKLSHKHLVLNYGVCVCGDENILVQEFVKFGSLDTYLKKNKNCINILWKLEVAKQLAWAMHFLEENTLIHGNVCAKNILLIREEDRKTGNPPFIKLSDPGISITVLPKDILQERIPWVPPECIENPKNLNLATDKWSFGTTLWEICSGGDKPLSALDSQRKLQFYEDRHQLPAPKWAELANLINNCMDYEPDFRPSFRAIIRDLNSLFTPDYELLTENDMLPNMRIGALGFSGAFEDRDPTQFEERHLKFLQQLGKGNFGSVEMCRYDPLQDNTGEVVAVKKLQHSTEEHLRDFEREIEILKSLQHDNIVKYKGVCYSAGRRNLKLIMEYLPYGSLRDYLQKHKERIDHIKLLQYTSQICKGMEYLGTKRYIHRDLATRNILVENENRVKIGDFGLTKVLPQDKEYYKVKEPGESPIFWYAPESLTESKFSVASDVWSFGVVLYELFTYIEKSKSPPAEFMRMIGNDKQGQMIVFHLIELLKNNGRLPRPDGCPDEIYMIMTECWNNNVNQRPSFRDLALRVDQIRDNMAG
Sequence of Serine/threonine-protein kinase PAK 2 (Homo sapiens) (Q13177 whole entry, the tested form may be a part): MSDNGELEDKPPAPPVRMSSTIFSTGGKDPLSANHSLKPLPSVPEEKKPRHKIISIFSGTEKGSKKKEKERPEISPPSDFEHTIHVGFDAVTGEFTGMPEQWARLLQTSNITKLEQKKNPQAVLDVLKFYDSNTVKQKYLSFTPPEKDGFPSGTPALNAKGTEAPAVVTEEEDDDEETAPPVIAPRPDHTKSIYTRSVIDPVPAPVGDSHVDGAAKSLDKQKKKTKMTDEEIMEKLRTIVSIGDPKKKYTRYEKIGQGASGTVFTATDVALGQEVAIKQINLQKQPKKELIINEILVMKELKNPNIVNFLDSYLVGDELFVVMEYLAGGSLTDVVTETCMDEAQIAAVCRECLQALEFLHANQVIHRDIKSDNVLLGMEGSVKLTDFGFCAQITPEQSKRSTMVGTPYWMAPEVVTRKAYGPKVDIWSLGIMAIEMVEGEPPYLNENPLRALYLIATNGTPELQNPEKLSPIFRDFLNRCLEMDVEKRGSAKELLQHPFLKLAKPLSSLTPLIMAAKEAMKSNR
Sequence of MAP kinase-interacting serine/threonine-protein kinase 2 (Homo sapiens) (Q9HBH9 whole entry, looked up): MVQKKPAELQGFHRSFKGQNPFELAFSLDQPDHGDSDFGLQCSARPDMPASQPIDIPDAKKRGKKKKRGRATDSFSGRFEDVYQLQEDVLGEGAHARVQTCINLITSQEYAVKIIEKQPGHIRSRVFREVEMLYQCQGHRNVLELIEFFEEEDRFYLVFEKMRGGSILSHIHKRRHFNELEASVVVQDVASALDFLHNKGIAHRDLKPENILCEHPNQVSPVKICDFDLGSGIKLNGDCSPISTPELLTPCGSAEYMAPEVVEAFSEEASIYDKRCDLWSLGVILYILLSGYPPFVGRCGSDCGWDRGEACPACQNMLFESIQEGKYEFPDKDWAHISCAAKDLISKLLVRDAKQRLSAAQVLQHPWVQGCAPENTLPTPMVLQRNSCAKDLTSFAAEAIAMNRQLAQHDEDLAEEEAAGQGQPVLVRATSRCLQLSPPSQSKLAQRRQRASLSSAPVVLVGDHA
Sequence of Receptor tyrosine-protein kinase erbB-4 (Homo sapiens) (Q15303 whole entry): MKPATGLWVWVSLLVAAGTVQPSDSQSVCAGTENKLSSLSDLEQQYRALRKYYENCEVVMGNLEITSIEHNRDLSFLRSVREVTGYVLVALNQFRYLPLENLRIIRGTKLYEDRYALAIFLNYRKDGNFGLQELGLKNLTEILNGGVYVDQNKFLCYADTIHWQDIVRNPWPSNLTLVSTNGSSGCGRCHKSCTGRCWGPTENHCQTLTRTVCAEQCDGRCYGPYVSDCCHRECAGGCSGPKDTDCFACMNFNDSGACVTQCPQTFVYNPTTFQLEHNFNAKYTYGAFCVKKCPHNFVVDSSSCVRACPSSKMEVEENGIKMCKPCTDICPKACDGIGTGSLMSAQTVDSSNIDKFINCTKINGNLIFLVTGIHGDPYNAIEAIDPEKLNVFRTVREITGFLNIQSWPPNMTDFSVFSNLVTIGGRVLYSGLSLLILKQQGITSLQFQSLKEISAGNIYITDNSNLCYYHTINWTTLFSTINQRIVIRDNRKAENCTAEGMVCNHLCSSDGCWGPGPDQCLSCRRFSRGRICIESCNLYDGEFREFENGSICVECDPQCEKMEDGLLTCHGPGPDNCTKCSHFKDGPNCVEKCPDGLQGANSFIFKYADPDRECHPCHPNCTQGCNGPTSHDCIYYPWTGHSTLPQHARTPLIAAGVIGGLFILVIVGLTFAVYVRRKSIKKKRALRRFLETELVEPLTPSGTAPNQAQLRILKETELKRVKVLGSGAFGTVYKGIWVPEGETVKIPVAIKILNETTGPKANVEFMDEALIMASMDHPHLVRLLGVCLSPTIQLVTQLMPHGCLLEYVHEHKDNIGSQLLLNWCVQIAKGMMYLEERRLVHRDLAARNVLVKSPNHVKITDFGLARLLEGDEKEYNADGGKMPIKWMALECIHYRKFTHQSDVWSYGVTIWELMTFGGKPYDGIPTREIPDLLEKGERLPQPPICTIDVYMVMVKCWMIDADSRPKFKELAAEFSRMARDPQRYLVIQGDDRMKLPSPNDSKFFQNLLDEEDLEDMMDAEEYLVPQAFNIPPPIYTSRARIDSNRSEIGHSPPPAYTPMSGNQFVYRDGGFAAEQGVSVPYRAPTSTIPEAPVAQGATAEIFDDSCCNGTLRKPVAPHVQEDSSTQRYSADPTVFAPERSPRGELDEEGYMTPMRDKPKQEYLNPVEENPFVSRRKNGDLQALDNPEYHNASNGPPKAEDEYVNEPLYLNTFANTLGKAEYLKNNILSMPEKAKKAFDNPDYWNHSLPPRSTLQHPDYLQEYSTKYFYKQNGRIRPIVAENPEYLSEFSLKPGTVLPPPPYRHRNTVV
Sequence of Serine/threonine-protein kinase D3 (Homo sapiens) (O94806 whole entry): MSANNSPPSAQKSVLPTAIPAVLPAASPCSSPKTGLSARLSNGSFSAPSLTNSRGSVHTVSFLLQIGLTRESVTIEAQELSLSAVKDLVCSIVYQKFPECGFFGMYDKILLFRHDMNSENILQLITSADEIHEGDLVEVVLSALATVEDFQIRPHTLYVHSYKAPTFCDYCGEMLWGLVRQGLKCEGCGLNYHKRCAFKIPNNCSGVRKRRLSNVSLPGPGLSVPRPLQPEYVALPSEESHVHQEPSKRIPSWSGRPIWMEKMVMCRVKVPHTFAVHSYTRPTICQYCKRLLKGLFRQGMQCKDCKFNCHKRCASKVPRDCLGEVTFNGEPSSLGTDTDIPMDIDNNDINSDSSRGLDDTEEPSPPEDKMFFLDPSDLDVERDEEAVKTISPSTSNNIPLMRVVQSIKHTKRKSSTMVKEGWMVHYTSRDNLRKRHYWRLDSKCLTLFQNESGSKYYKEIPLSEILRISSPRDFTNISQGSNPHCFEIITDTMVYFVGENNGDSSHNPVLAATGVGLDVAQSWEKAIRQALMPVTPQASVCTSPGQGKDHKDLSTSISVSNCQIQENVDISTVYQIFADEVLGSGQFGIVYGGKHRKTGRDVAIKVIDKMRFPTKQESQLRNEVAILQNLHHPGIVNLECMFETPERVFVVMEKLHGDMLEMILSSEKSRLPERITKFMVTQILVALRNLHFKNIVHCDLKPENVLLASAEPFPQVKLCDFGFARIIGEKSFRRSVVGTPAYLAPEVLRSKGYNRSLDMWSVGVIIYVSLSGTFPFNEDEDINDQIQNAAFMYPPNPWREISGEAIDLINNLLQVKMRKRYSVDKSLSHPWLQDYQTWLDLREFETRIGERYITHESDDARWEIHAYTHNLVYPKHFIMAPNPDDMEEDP

For `Cc1ccc2c(Nc3ccc(Cl)cc3)nccc2c1Nc1ncccc1-c1ncnc2[nH]cnc12.Cl.Cl.Cl`, the Vd [1] was 1.1 L/kg, the bioavailability [2] was 80% and the Activity [3] was 96%. The Activity [4] was 73%, the Activity [5] was 100% and the Activity [6] was 87%. The Activity [7] was 85%, the Activity [8] was 3.9% and the Activity [9] was 100%. The Activity [10] was 100%, the Activity [11] was 100% and the Activity [12] was 100%. It also gave an Activity [13] of 93%, an Activity [14] of 100% and an Activity [15] of 100%. For the same molecule, the Activity [16] was 72%, the Activity [17] was 94% and the Activity [18] was 98%. For the same molecule, the Activity [19] was 100%, the Activity [20] was 95% and the Activity [21] was 100%. The Activity [22] was 100%, the Activity [23] was 99% and the Activity [24] was 98%. The Activity [25] was 100%, the Activity [26] was 90% and the Activity (A-375) was 85%. It also gave an Activity [27] of 80%, an Activity [28] of 71% and an Activity [29] of 96%. The Activity [30] was 78%, the Activity [31] was 100% and the Activity [32] was 94%. It also gave an Activity [33] of 100%, an Activity [34] of 100% and an Activity [35] of 100%. For the same molecule, the Activity [36] was 100% and the Activity [37] was 97%.

— ChEMBL document CHEMBL1155237, “Selective inhibitors of the mutant B-Raf pathway: discovery of a potent and orally bioavailable aminoisoquinoline” (J Med Chem, 2009)
